Reference: paper PMC12469161, “Anti-cancer compound screening identifies Aurora Kinase A inhibition as a means to favor CRISPR/Cas9 gene correction over knock-out” (PLOS One, 2025)

How the values were obtained:
[1] = test system: eGFP locus in Hepa 1–6-eGFP cells (HDR vs NHEJ); experiment: CRISPR gene-editing outcome (eGFP to BFP, flow cytometry) with ProDeliverIN CRISPR; assay type: cell-based, murine; conditions: for dosage with overall high efficacy and manageable toxicity: Hepa 1–6-eGFP
From the text: Lipid nanoparticles (LNP) carrying SpCas9, sgRNA and HDR template DNA were formulated using the components and molecular ratios described previously. 1,1′-((2-(4-(2-((2-(bis(2-hydroxydodecyl)amino)ethyl)(2-hydroxydodecyl)amino)ethyl)piperazin-1-yl)ethyl)azanediyl)bis(dodecan-2-ol) (C12-200) was acquired from CordonPharma (Plankstadt, Germany) and used as the ionizable lipid in the formulation. 1,2-dioleoyl-sn-glycero-3-phosphoethanolamine (DOPE) was acquired from Lipoid GmbH (Steinhausen, Switzerland), Cholesterol and 1,2-dimyristoyl-rac-glycero-3-methoxypolyethylene glycol-2000 (PEG-DMG) were acquired from Sigma-Aldrich, and 1,2-dioleoyl-3-trimethylammonium-propane (DOTAP) was acquired from Merck (Darmstadt, Germany). LNP were produced using microfluidic mixing with the Dolomite Microfluidics system (Dolomite Microfluidics, Royston, United Kingdom) and herring-bone micromixer chip with hydrophilic coating (Dolomite Microfluidics, catalogue number 3200401). A total flow rate of 1.5 mL/min and flow rate ratio of 2:1 were used between an aqueous outer phase containing SpCas9, sgRNA and HDR template in nuclease free water, and the lipids in 100% ethanol in the inner phase, respectively. The resulting LNP were diluted 4 times in Dulbecco’s PBS (Sigma-Aldrich). In the experiments using the Hepa 1–6 eGFP cells, ProDeliverIN CRISPR (OZ Biosciences, San Diego, USA) was used as reported previously.
(§1) Compounds were assessed in three dosages to assess the effects on gene-editing efficacy. […] Cells were incubated with these compounds for 24 hours prior to LNP addition. LNP were added to all wells at a final concentration of 20 nM SpCas9 to achieve robust genome editing. After 24 hours of co-incubation, medium was refreshed and cells were transferred to a 48 well plate for further culturing. Six days after adding compounds, cells were processed for flow cytometric analysis of the gene knock-out and gene-correction efficiencies. Briefly, a ssDNA template was used carrying two nucleotide mutations to convert the eGFP sequence to that of a blue fluorescent protein (BFP), as well as mutating the PAM sequence to ensure robust HDR. The sgRNA spacer sequence was 5’-[…]-3’, and the HDR template sequence was 5’-[…]-3’.
Flow cytometry using the BD FACS Canto II (Becton Dickinson) was used to determine cells undergoing NHEJ (eGFP and BFP negative population) and HDR (eGFP negative, BFP positive). […]
(§2) The percentage of HDR relative to total gene editing in a given cell population (hereafter named Relative HDR (% of edited cells) was calculated by dividing the absolute HDR population by the sum of gene-edited cells found in the BFP+ and eGFP- gates. Absolute HDR (% of all cells) and Absolute NHEJ (% of all cells) were analyzed where appropriate. The gating strategy is given in S1 Fig in S1 File.

Hepa 1–6-eGFP cells = experiment: MTS cell viability and morphology, 5 days; assay type: cell-based, murine; conditions: for cell morphology by microscopy: 0.3 µM, after 5 days, vs untreated control
Description: (§3) A narrower cytotoxicity range was determined by exposing cells to 0.1–1 µM of the tested compounds. 48 hours after treatment started, cells were washed and harvested using medium and one third of the volume was transferred to a fresh 96 well plate, analogous to how cells are treated during gene editing experiments. Subsequently, cells were cultured for another 3–5 days. In the case of 5 days, one third of the cells was again transferred into a fresh 96-well plate on day 3 to allow enough space for logarithmic cell growth during the additional incubation time. Cell viability was determined by the Promega One Step MTS assay (Promega, Madison, USA) using the manufacturer’s specifications. Relative cell viability for the Hepa 1–6-eGFP cells was calculated by normalizing the compound conditions to controls treated with DMSO only or DMSO plus gene editing formulations. For the HEK293T cells, the absolute absorbance at […] was used as it was more representative of the relative cell viability between samples.
(§4) Cell morphology was assessed using the Nikon Eclipse Ti2 microscope (Nikon Europe, Amstelveen, The Netherlands). Pictures were acquired at 10x magnification with a Nikon DSLR 10 camera using the same imaging settings within each experiment set (Nikon Europe, Amstelveen, The Netherlands).

AURKA = test system: AURKA; set-up: method as in manufacturer; conditions: ref manufacturer; cited from earlier work
AURKB = test system: AURKB; set-up: method as in manufacturer; conditions: ref manufacturer; cited from earlier work
HEK293T-eGFP cells [2] = experiment: MTT cytotoxicity assay, 72 hours; assay type: cell-based; conditions: 72 h; HEK293T-eGFP cells, 3 days of incubation, MTT; read-out: IC50
Description: Cells were cultured for 16–24 hours under standard culturing conditions (5% CO2, 37 °C). […] All dose ranges were added in duplicate, followed by 72 hours of incubation. Cell viability was determined using a tetrazolium based metabolic activity assay. Briefly, 5 µL of 3-(4.5-dimethylthiazol-2-yl)-2,5-diphenyltetrazolium bromide (MTT) solution (5 mg/mL MTT in sterile PBS) was added per well, and the microplates were incubated for 4 hours at 37°C and 5% CO2 in a cell culture incubator. Next, 40 µL of 10% SDS/0.01 M HCl was added per well, and the microplates were incubated for 24–72 hours at 37°C and 5% CO2 in a cell culture incubator. Subsequently the absorbance at 570 nm and background absorbance at 720 nm were measured using the Spectramax i3x (Molecular Devices, San Jose, USA). Subsequently, the absorbance values at 720 nm were subtracted from the absorbance values at 570 nm, and the corresponding values were used to plot dose-response curves.
The data was normalized to the DMSO-treated cells (defined as 100% viability) and the empty controls (defined as 0% viability).

[3] = test system: eGFP locus in HEK293T-eGFP cells (HDR vs NHEJ); experiment: CRISPR gene-editing outcome (eGFP to BFP conversion, flow cytometry) with CRISPR-Cas9 LNP; assay type: cell-based
Description: as §1
Flow cytometry using the BD FACS Canto II (Becton Dickinson) was used to determine cells undergoing NHEJ (eGFP and BFP negative population) and HDR (eGFP negative, BFP positive). Data analysis was performed using Flowlogic (version 8.7). Graphpad PRISM (version 9.3.1) was used for statistical analysis and preparing graphs.
as §2

HEK293T cells = experiment: MTS time-resolved cytotoxicity and morphology; assay type: cell-based
Description: as §3, §4

[4] = MTS cell viability and morphology, 5 days; assay type: cell-based, murine; conditions: mouse, Hepa 1–6-eGFP cells; 0.3 µM, MTS 5 days after start of treatment; read-out: relative cell viability
Description: as §3, §4

[5] = test system: primary murine hepatocytes; experiment: MTT cytotoxicity on primary hepatocytes; assay type: cell-based, murine (Ai9 mice); conditions: for IC50: Mus musculus, Hepatocyte
Description: Primary murine hepatocytes were harvested from Ai9 mice and cultured in 2D prior to transfection as previously reported. […] Toxicity was measured at this timepoint, and 72 hours later,. Cell viability was calculated by subtracting a medium blank from the absorption, and dividing the absorption by that of a vehicle-only control.

[6] = test system: PCSK9 locus in Hepa 1–6 cells; experiment: PCSK9 genome editing, Sanger sequencing and TIDER; assay type: cell-based, murine; conditions: TIDER, 0.3 µM
Description: Transfection mixtures were prepared to deliver 30 nM RNP (and where applicable 60 nM HDR template DNA) respectively using the commercial ProdeliverIN CRISPR kit. Following this, the cells were incubated for an additional 48h followed by cell lysis and DNA purification using the DNeasy Blood and Tissue kit (Qiagen, Venlo, The Netherlands) using the manufacturers protocol for cell line lysis. Subsequently, PCR was done using the primer set in S1 Table using the Phusion Hotstart Dna Polymerase (Thermo Fischer Scientific) and the recommended thermocycle conditions and PCR mix by the manufacturer. PCR products were purified using the GeneJET PCR Purification Kit (Thermo Fischer Scientific) and finally prepared for Sanger sequencing performed by Macrogen (Amsterdam, The Netherlands. Data was analyzed using the TIDER software package available at http://shinyapps.datacurators.nl/tider/ using an untreated sequencing plot as control chromatogram and a dsDNA gBlock (Integrated DNA Technologies) containing the desired mutation as reference chromatogram. Total gene editing and HDR were analyzed for S7 Figure.

HEK293T-eGFP cells [7] = experiment: MTT cytotoxicity assay, 72 hours; assay type: cell-based; conditions: 0.1 µM, MTT toxicity curve (S2 Fig), two days after treatment

With `CC(=O)NCC(=O)N1[C@@H]2CC[C@H]1c1ccc(Nc3ncc(C(F)(F)F)c(NC4CCC4)n3)cc12` [PF-03814735] as the molecule, how does the “dosage with overall high efficacy and manageable toxicity” value [1] read?
The value was 0.2 µM.

And the “cell morphology by microscopy” value (Hepa 1–6-eGFP cells)?
Its value is “did not change as drastically”.

And the “comparative cytotoxicity of the aurora kinase inhibitors” value (Hepa 1–6-eGFP cells; Hepa 1–6-eGFP)?
Its value is “clearly more drastic toxicity”.

And the IC50 (AURKB)?
The IC50 was 0.0005 µM.

For `COc1cc(Nc2ncc3c(n2)-c2ccc(Cl)cc2C(c2c(F)cccc2OC)=NC3)ccc1C(=O)O` [Alisertib], which IC50 (HEK293T-eGFP cells [2]) is on record?
The IC50 was > 10 µM.

What about the “increase in preferential gene correction over gene knock-out” value ([3]; HEK293T, eGFP locus, sub-micromolar dosages) of the same molecule?
Its value is “over 4 fold”.

What about the “lowest effective concentration for preferential HDR activation” value ([3]; HEK293T-eGFP cells, narrow dose range) of the same molecule?
Its value is 0.3 µM.

What about the “preferential activation of HDR over NHEJ in hit validation” value ([3]; narrowed dose range, triplicate, vs LNP only) of the same molecule?
The value was “strong dose-dependent preferential activation of HDR over NHEJ”.

And the “effect on the NHEJ and HDR outcomes” value ([3]; validated hits, Fig 2B)?
The value was “inhibited NHEJ and improved HDR”.

And the “increase in preferential gene correction over gene knock-out” value ([1]; Hepa 1–6, eGFP locus, sub-micromolar dosages)?
The value was “over 4 fold”.

What about the “dosage with overall high efficacy and manageable toxicity” value [1] of the same molecule?
Its value is 0.3 µM.

What about the “toxicity at different incubation times” value (HEK293T cells; MTS, total incubation time varied (S5 Fig A)) of the same molecule?
Its value is “did not vary significantly”.

What about the “cell viability by MTS” value (HEK293T cells; after 2 days) of the same molecule?
Its value is “not affected”.

And the “cell viability by MTS” value (HEK293T cells; after 5 days)?
The value was “dose-dependent decrease in cell viability”.

What about the “metabolic activity and confluency” value (HEK293T cells; seven days after treatment started, at least 0.3 µM) of the same molecule?
The value was “very low metabolic activity and confluency”.

What about the viability at 5 days, 0.3 µM [4] of the same molecule?
Its viability at 5 days, 0.3 µM is 37%.

What about the “cell morphology by microscopy” value (Hepa 1–6-eGFP cells) of the same molecule?
The value was “did not change as drastically”.

What about the IC50 ([5]; 48h after exposure) of the same molecule?
Its IC50 is 32.7 µM.

And the IC50 ([5]; 120h after exposure (48h incubation))?
Its IC50 is 54.8 µM.

What about the “toxicity (order of)” value ([5]; primary murine hepatocytes, both timepoints) of the same molecule?
Its value is 30 to 50 µM.

And the “HDR at the PCSK9 locus” value [6]?
Its value is “measurable only when alisertib was present”.

What about the “loss of cell viability” value (HEK293T-eGFP cells [7]) of the same molecule?
Its value is 20%.
